System: reprogramming resistant regions (RRRs) / ZGA genes
Assay: RNA-seq of late 8-cell human SCNT embryos with or without KDM4A mRNA injection (ZGA of RRRs, KDM4A-responsive genes)
Assay type: cell-based
Conditions: 8-cell embryos
From the text: A sliding window (size 20 kb, step size 10 kb) was used to assess the genome-wide expression level of 4-cell and 8-cell human embryos. For each window, the expression level was quantified with normalized RPM (reads per millions of uniquely mapped reads). […] These activated regions were classed into three groups based on their expression differences in human SCNT and IVF 8-cell embryos.
The SCNT embryos used for ZGA analysis were generated using oocytes donated by a single healthy person (#64) and dermal fibroblast cells from an AMD patient (DFB-8). SCNT and IVF embryos were cultured up to late 8-cell stage, when the compaction of blastomeres is initiated, then they were treated briefly with acid Tyrode solution to remove zona pellucida. To prepare for the 8-cell SCNT embryo, oocytes from a single oocyte donor, and skin fibroblast cells from a single somatic nuclear donor were used. All the procedures are the same as described in the “Human SCNT procedure and KMD4A mRNA injection” section. Only embryos that reached the late 8-cell stage synchronically 74 hours post activation were collected and used for this experiment.
For preparation of the control IVF embryos, several donated early 8-cell stage IVF embryos were thawed and cultured for 5-7 hours to allow them to reach late 8-cell stage before being processed. After removal of the zona pellucida, the denuded embryos were washed 3 times in PBS, loaded into RNAse and DNAse free PCR tubes, spin downed, and snap frozen in liquid nitrogen. Then, they were kept at −80° C. until use. As controls, dermal fibroblast cells of somatic nuclear donors were also prepared. Those fibroblast cells were cultured in a 25 cm^2 flask in DMEM 10% FBS, and approximately 10,000 cells/donor were collected, snap frozen, and stored at −80° C. until use.
Five 8-cell embryos for each group were directly lysed and used for cDNA synthesis using SMART-Seq v4 Ultra Low Input RNA Kit (Clontech). For MEF donor, 10 ng total RNA was used for cDNA synthesis using SMART-Seq v4 Ultra Low Input RNA Kit. After amplification, the cDNA samples were fragmented using Covaris sonicator M220 to an average size of 150 bp (Covaris). Sequencing libraries were made with the fragmented DNA using NEBNext Ultra DNA Library Prep Kit for Illumina according to manufacturer's instruction (New England Biolabs) with different barcodes. For each RNA-seq analysis of hESCs, 1 μg total RNA was used for mRNA purification. Barcoded RNA-seq libraries were generated using NEBNext Ultra Directional RNA Library Prep Kit for Illumina (New England Biolabs). Single end 50 bp sequencing was performed on a HiSeq 2500 sequencer (Illumina). Sequencing reads were mapped to the human genome (hg19) with Tophat2. All programs were performed with default settings (unless otherwise specified). At least 22 million uniquely mapped reads were obtained for each sequencing library, and subsequently assembled into transcripts guided by the reference annotation (Refseq gene models) with Cufflinks v2.0.2. Expression level of each gene was quantified with normalized FPKM (fragments per kilobase of exon per million mapped fragments). Statistical analyses were performed with R (available at: “www.r-project.org/”). Independent 2 group Wilcoxon rank sum tests were used to compare distributions using the wilcox.test function in R. Pearson's r coefficient was calculated using the cor function with default parameters. The hierarchical clustering analysis of the global gene expression pattern in different samples was carried out using heatmap.2 function (gplots package) in R.

## KDM4A mRNA: in vitro transcribed mRNA of full length human KDM4A/JHDM3A cDNA, an H3K9me3 demethylase (SEQ ID NO: 1)
  FAM83D Fold Change (log2) [KDM4A SCNT/Control SCNT]: 1.32 log2
  FAM133B Fold Change (log2) [KDM4A SCNT/Control SCNT]: 1.1 log2
  FAM151A Fold Change (log2) [KDM4A SCNT/Control SCNT]: 1.99 log2
  FAM162A Fold Change (log2) [KDM4A SCNT/Control SCNT]: 1.73 log2
  FAM200A Fold Change (log2) [KDM4A SCNT/Control SCNT]: 1.17 log2
  FASTKD5 Fold Change (log2) [KDM4A SCNT/Control SCNT]: 1.05 log2
  FBXL12 Fold Change (log2) [KDM4A SCNT/Control SCNT]: 1.74 log2
  FMR1NB Fold Change (log2) [KDM4A SCNT/Control SCNT]: 1.49 log2
  FOXN2 Fold Change (log2) [KDM4A SCNT/Control SCNT]: 1.29 log2
  GALM Fold Change (log2) [KDM4A SCNT/Control SCNT]: 1.55 log2
  GIP Fold Change (log2) [KDM4A SCNT/Control SCNT]: 1.59 log2
  GJA1 Fold Change (log2) [KDM4A SCNT/Control SCNT]: 1.36 log2
  GOLGB1 Fold Change (log2) [KDM4A SCNT/Control SCNT]: 1.58 log2
  GUCA1B Fold Change (log2) [KDM4A SCNT/Control SCNT]: 1.02 log2
  GUSBP1 Fold Change (log2) [KDM4A SCNT/Control SCNT]: 1.11 log2
  GUSBP4 Fold Change (log2) [KDM4A SCNT/Control SCNT]: 1.12 log2
  H3F3A Fold Change (log2) [KDM4A SCNT/Control SCNT]: 1.84 log2
  IFI30 Fold Change (log2) [KDM4A SCNT/Control SCNT]: 1.05 log2
  IL13RA2 Fold Change (log2) [KDM4A SCNT/Control SCNT]: 1.85 log2
  KHDC1 Fold Change (log2) [KDM4A SCNT/Control SCNT]: 1.89 log2
  KHDC1L Fold Change (log2) [KDM4A SCNT/Control SCNT]: 1.54 log2
  KITLG Fold Change (log2) [KDM4A SCNT/Control SCNT]: 2.36 log2
  KLF17 Fold Change (log2) [KDM4A SCNT/Control SCNT]: 1.19 log2
  KLK4 Fold Change (log2) [KDM4A SCNT/Control SCNT]: 1.68 log2
  KLK11 Fold Change (log2) [KDM4A SCNT/Control SCNT]: 1.76 log2
  KPTN Fold Change (log2) [KDM4A SCNT/Control SCNT]: 4.35 log2
  LARP6 Fold Change (log2) [KDM4A SCNT/Control SCNT]: 1.35 log2
  LEMD3 Fold Change (log2) [KDM4A SCNT/Control SCNT]: 1.11 log2
  LIM2 Fold Change (log2) [KDM4A SCNT/Control SCNT]: 1.99 log2
  LINC00263 Fold Change (log2) [KDM4A SCNT/Control SCNT]: 1.39 log2
  LOC284408 Fold Change (log2) [KDM4A SCNT/Control SCNT]: 2.24 log2
  LOC347411 Fold Change (log2) [KDM4A SCNT/Control SCNT]: 1.36 log2
  LOC401397 Fold Change (log2) [KDM4A SCNT/Control SCNT]: 1.75 log2
  LOC643955 Fold Change (log2) [KDM4A SCNT/Control SCNT]: 1.44 log2
  LOC653513 Fold Change (log2) [KDM4A SCNT/Control SCNT]: 2.12 log2
  LOC723809 Fold Change (log2) [KDM4A SCNT/Control SCNT]: 1.15 log2
  LOC100129515 Fold Change (log2) [KDM4A SCNT/Control SCNT]: 1.03 log2
  LOC100289211 Fold Change (log2) [KDM4A SCNT/Control SCNT]: 2.34 log2
  LOC100505854 Fold Change (log2) [KDM4A SCNT/Control SCNT]: 1.58 log2
  LOC100506305 Fold Change (log2) [KDM4A SCNT/Control SCNT]: 1.2 log2
  LOC100506668 Fold Change (log2) [KDM4A SCNT/Control SCNT]: 1.63 log2
  LUC7L Fold Change (log2) [KDM4A SCNT/Control SCNT]: 1.28 log2
  M1 Fold Change (log2) [KDM4A SCNT/Control SCNT]: 4.71 log2
  MAGEA12 Fold Change (log2) [KDM4A SCNT/Control SCNT]: 1.81 log2
  MAGEB2 Fold Change (log2) [KDM4A SCNT/Control SCNT]: 3.15 log2
  MATR3 Fold Change (log2) [KDM4A SCNT/Control SCNT]: 1.11 log2
  MED31 Fold Change (log2) [KDM4A SCNT/Control SCNT]: 1.44 log2
  MFSD11 Fold Change (log2) [KDM4A SCNT/Control SCNT]: 1.4 log2
  MPV17L2 Fold Change (log2) [KDM4A SCNT/Control SCNT]: 1.54 log2
  MRPL28 Fold Change (log2) [KDM4A SCNT/Control SCNT]: 1.59 log2
  MTERF Fold Change (log2) [KDM4A SCNT/Control SCNT]: 2.39 log2
  NANOGNB Fold Change (log2) [KDM4A SCNT/Control SCNT]: 1.79 log2
